Reference: patent publication US20250151721A1, “MOSQUITO ATTRACTANT COMPOSITIONS THAT MIMIC HUMAN ODOR IN THE MOSQUITO BRAIN” (TRUSTEES OF PRINCETON UNIVERSITY, priority 2021, published 2025)

Legend:
[1] = system: broadly tuned (B) glomerulus of the antennal lobe; test: Two-photon calcium imaging of odour-evoked activity in the broadly tuned (B) glomerulus; assay type: in vivo, Aedes aegypti
Excerpt: (§1) We designed a two-photon microscope that incorporates both resonant scanning^69 and remote focusing^70,71 to achieve rapid, volumetric, in vivo neural imaging. Remote focusing allows rapid switching of the imaging plane by moving a small, lightweight mirror located upstream in the imaging path. […] In diagnostic tests, transition times for switching between two planes were less than 6 ms.
(§2) We custom-designed a mosquito holder with a 3D-printed plastic frame and thin stainless-steel plate (FIG. 2C, thickness 0.001 inch). A tiny mosquito-head-sized hole was photo-chemically etched on the plate (ETCHIT Company). To prepare for imaging, we anaesthetized a female on ice for ˜1 min, pushed the anterodorsal side of her head into the hole, and fixed it with UV glue (RapidFix 6121830ES). The antennae, maxillary palps, and proboscis remained below the metal plate and contacted neither the plate nor the glue. We added room-temperature saline (103 mM NaCl, 3 mM KCl, 5 mM TES, 26 mM NaHCO3, 1 mM NaH2PO4, 1.5 mM CaCl2), 4 mM MgCl2, 10 mM Trehalose, 10 mM Glucose; pH 7.1) to the holder and used sharp forceps to remove a section of the head capsule (including both cuticle and the edge of the eyes) from the part of the head protruding through the metal plate. During imaging, we continuously perfused saline bubbled with carbogen (5% CO2, 95% O2) through the holder and across the open head capsule at 125 ml/hour.
We used the ScanImage^72 package in Matlab to control the microscope and acquire images. For each individual, we chose either the right or left antennal lobe (AL) and recorded movies of odour-evoked activity (starting 7-30 sec before and continuing 20-60 sec after synthetic-odorant puffs; ˜30 sec before, ˜140 sec after puffs of complex extract). The movies covered the entire AL in Z-stacks that were 4 μm apart at 128×128 pixel resolution (22 stacks total, green channel only for the orco-T2A-QF2-QUAS-GCaMP 6f strain; 28 stacks, green and red channels for the brp>jGCaMP7s strain). […] Laser power as measured at the sample plane was 10 mW. […]

[2] = system: human-sensitive (H) glomerulus of the antennal lobe; test: Two-photon calcium imaging of odour-evoked activity in the human-sensitive (H) glomerulus; assay type: in vivo, Aedes aegypti; conditions: for response of H glomerulus: panel of 50 single odorants at approximately the same vapour-phase concentration (that of sulcatone in 1× human odour)
Excerpt: as §1, §2
(§3) We used the ScanImage^72 package in Matlab to control the microscope and acquire images. For each individual, we chose either the right or left antennal lobe (AL) and recorded movies of odour-evoked activity (starting 7-30 sec before and continuing 20-60 sec after synthetic-odorant puffs; ˜30 sec before, ˜140 sec after puffs of complex extract). The movies covered the entire AL in Z-stacks that were 4 μm apart at 128×128 pixel resolution (22 stacks total, green channel only for the orco-T2A-QF2-QUAS-GCaMP 6f strain; 28 stacks, green and red channels for the brp>jGCaMP7s strain). The resulting voxel size was approximately 0.9×0.8×4 μm^3, and the volumetric imaging rate was 3.76 Hz for the orco-T2A-QF2-QUAS-GCaMP 6f strain and 2.95 Hz for the brp>jGCaMP7s strain. We increased the laser power exponentially with depth (ranging from 7.5 to 10 mW) to account for light decay and scattering in deeper tissues. Laser power as measured at the sample plane was 10 mW. After recording odour-evoked activity, we acquired 30-40 high-resolution structural volumes at high laser power to aid registration and downstream analysis. For this, we imaged the AL in 120-180 z-stacks, 1 μm apart, at 256×256 pixel resolution.
The three target glomeruli could be reliably identified across brains based on position and responses to key reference odorants. Human-sensitive glomerulus H was located in the anterior AL, adjacent to a landmark non-Orco glomerulus in our two-photon images (unlabeled area surrounded by Orco+ glomeruli; FIGS. 8A-B), and responded to 10^−2 heptanal. Animal-sensitive glomerulus A was located in the dorsal AL and responded to 10^−2 phenol. Broadly tuned glomerulus B was located in the posterior-medial AL and responded to 10^−2 benzaldehyde. Glomeruli H, A, and B tentatively correspond to V3, MD2, and PD1, respectively, in a previously published atlas^35, but we cannot be sure without molecular markers.
We used area under df/f curves as a metric for neural activity. For single-odorant stimuli, which evoked single df/f peaks, we defined the peak boundaries by first locating the max (for activation) or min (for inhibition) points in the df/f curve and then extending from the max/min point until df/f dropped to background levels. For natural odour extracts, which sometimes evoked multiple peaks, we integrated df/f values from desorption of the focusing trap to the end of neural recording (0 to 140 sec). […]

[3] = system: animal-sensitive (A) glomerulus of the antennal lobe; test: Two-photon calcium imaging of odour-evoked activity in the animal-sensitive (A) glomerulus; assay type: in vivo, Aedes aegypti; conditions: for activation of A glomerulus: panel of 50 single odorants at approximately the same vapour-phase concentration
Excerpt: We designed a two-photon microscope that incorporates both resonant scanning^69 and remote focusing^70,71 to achieve rapid, volumetric, in vivo neural imaging. Remote focusing allows rapid switching of the imaging plane by moving a small, lightweight mirror located upstream in the imaging path.
as §2, §3
We used area under df/f curves as a metric for neural activity. For single-odorant stimuli, which evoked single df/f peaks, we defined the peak boundaries by first locating the max (for activation) or min (for inhibition) points in the df/f curve and then extending from the max/min point until df/f dropped to background levels. For natural odour extracts, which sometimes evoked multiple peaks, we integrated df/f values from desorption of the focusing trap to the end of neural recording (0 to 140 sec).

[4] = system: Orco+ glomeruli of the antennal lobe; test: Two-photon calcium imaging of odour-evoked activity across Orco+ glomeruli; assay type: in vivo, Aedes aegypti
Excerpt: as §1
We custom-designed a mosquito holder with a 3D-printed plastic frame and thin stainless-steel plate (FIG. 2C, thickness 0.001 inch). A tiny mosquito-head-sized hole was photo-chemically etched on the plate (ETCHIT Company). To prepare for imaging, we anaesthetized a female on ice for ˜1 min, pushed the anterodorsal side of her head into the hole, and fixed it with UV glue (RapidFix 6121830ES). The antennae, maxillary palps, and proboscis remained below the metal plate and contacted neither the plate nor the glue. […]
We used the ScanImage^72 package in Matlab to control the microscope and acquire images. For each individual, we chose either the right or left antennal lobe (AL) and recorded movies of odour-evoked activity (starting 7-30 sec before and continuing 20-60 sec after synthetic-odorant puffs; ˜30 sec before, ˜140 sec after puffs of complex extract). […] Laser power as measured at the sample plane was 10 mW. […]

[5] = system: female Aedes aegypti mosquitoes; test: Two-port olfactometer host-preference assay; assay type: in vivo; conditions: in the absence of human or animal odour
Method: We tested the host preference of mated, non-blood-fed, 7-14 day old females that had been housed overnight with access to water only (no sucrose). We used a two-port olfactometer for choice and no-choice tests involving live hosts (FIGS. 1A and C) or sleeves/hair (FIGS. 1B and D) as previously described3. We first acclimated 75-100 female mosquitoes in the olfactometer for 5 min, then opened a sliding door and activated a fan to pull air through the two host chambers and expose mosquitoes to host odour. Mosquitoes were able to fly upwind, sample the host-odour streams, and choose to enter either host port. After 6 min, we counted the number of mosquitoes trapped in each host port. For two-choice trials with live hosts, one chamber contained a human hand and arm up to the elbow (belonging to one of six 22-43 year old individuals: 3 female, 3 male; 3 Caucasian, 2 East Asian, 1 South Asian). The human exhaled gently near the opening of the chamber once every 30 sec to provide a source of breath. The other chamber contained a guinea pig (Cavia porcellus; one of two 4-5 year old pigmented females), rat (Rattus norvegicus domesticus; one of two 2-6 month old Sprague-Dawley males), or button quail (Coturnix coturnix; one 2-3 year old female). […]

[6] = concentrations calibrated to about ⅕th of activity evoked by 1× human odour, paraffin oil
[7] = synthetic odorants singly or as combo, vapour-phase concentrations characteristic of 1× human odour, 3-sec puffs

CCCCCCO [1-hexanol]
activity evoked in B glomerulus [1, 6]: evoked activity in their cognate glomeruli

CCCCCCCCCC=O [Decanal]
activity evoked in H glomerulus [2, 6]: evoked activity in their cognate glomeruli | activity evoked in H glomerulus [2, 7]: strong and prolonged activity

CC(=O)C(C)O (stereo not shown) [acetoin]
activation of B glomerulus ([1]; synthetic odorants singly or as combo, vapour-phase concentrations characteristic of 1× human odour): strongly activated | activation of A glomerulus [3]: strongly activated | activity evoked in A glomerulus ([3]; physiological concentrations (as in 1× human odour)): too low to evoke consistent activity

O=Cc1ccccc1 [benzaldehyde]
response of B glomerulus to reference odorant ([1]; 10^−2 dilution): responded

CS(C)(=O)=O [dimethyl sulfone]
activation of A glomerulus [3]: strongly activated

CCCCCCC=O [heptanal]
response of H glomerulus to reference odorant ([2]; 10^−2 dilution): responded

CCCCCC=O [hexanal]
response of H glomerulus [2]: no response

Cc1ccc(O)cc1 [p-cresol]
activation of A glomerulus [3]: strongly activated

Oc1ccccc1 [phenol]
response of A glomerulus to reference odorant ([3]; 10^−2 dilution): responded | activation of A glomerulus [3]: strongly activated

CC(=O)CCC=C(C)C [sulcatone]
glomerular activity in response to the compound ([4]; at its concentration in 1× human odour): did not see consistent activity | glomerular activity in response to the compound ([4]; higher doses (data not shown)): several glomeruli responded

O=C=O [synthetic CO2, CO2]
response of female mosquitoes in no-choice olfactometer trials [5]: minimal

CCCCCCCCCCC=O [undecanal]
response of H glomerulus [2]: strong activity | duration of H glomerulus activity beyond the 3-second puff ([2]; single odorant at equal vapour-phase concentration): ≥ 40 s | activity evoked in H glomerulus [2, 7]: strong and prolonged activity
